Data as given in ChEMBL document CHEMBL1134011, “LY294002-geldanamycin heterodimers as selective inhibitors of the PI3K and PI3K-related family” (Bioorg Med Chem Lett, 2001).

Key:
[1] = biological target: Heat shock protein HSP 90-alpha (Homo sapiens, UniProt P07900); assay: Competitive binding towards Heat shock protein HSP 90-alpha
[2] = biological target: T1, DNA-dependent protein kinase catalytic subunit (Homo sapiens, UniProt P78527); assay: Inhibition of DNA dependent protein kinase activity without hsp90 alpha protein
T1 sequence (P78527 whole entry): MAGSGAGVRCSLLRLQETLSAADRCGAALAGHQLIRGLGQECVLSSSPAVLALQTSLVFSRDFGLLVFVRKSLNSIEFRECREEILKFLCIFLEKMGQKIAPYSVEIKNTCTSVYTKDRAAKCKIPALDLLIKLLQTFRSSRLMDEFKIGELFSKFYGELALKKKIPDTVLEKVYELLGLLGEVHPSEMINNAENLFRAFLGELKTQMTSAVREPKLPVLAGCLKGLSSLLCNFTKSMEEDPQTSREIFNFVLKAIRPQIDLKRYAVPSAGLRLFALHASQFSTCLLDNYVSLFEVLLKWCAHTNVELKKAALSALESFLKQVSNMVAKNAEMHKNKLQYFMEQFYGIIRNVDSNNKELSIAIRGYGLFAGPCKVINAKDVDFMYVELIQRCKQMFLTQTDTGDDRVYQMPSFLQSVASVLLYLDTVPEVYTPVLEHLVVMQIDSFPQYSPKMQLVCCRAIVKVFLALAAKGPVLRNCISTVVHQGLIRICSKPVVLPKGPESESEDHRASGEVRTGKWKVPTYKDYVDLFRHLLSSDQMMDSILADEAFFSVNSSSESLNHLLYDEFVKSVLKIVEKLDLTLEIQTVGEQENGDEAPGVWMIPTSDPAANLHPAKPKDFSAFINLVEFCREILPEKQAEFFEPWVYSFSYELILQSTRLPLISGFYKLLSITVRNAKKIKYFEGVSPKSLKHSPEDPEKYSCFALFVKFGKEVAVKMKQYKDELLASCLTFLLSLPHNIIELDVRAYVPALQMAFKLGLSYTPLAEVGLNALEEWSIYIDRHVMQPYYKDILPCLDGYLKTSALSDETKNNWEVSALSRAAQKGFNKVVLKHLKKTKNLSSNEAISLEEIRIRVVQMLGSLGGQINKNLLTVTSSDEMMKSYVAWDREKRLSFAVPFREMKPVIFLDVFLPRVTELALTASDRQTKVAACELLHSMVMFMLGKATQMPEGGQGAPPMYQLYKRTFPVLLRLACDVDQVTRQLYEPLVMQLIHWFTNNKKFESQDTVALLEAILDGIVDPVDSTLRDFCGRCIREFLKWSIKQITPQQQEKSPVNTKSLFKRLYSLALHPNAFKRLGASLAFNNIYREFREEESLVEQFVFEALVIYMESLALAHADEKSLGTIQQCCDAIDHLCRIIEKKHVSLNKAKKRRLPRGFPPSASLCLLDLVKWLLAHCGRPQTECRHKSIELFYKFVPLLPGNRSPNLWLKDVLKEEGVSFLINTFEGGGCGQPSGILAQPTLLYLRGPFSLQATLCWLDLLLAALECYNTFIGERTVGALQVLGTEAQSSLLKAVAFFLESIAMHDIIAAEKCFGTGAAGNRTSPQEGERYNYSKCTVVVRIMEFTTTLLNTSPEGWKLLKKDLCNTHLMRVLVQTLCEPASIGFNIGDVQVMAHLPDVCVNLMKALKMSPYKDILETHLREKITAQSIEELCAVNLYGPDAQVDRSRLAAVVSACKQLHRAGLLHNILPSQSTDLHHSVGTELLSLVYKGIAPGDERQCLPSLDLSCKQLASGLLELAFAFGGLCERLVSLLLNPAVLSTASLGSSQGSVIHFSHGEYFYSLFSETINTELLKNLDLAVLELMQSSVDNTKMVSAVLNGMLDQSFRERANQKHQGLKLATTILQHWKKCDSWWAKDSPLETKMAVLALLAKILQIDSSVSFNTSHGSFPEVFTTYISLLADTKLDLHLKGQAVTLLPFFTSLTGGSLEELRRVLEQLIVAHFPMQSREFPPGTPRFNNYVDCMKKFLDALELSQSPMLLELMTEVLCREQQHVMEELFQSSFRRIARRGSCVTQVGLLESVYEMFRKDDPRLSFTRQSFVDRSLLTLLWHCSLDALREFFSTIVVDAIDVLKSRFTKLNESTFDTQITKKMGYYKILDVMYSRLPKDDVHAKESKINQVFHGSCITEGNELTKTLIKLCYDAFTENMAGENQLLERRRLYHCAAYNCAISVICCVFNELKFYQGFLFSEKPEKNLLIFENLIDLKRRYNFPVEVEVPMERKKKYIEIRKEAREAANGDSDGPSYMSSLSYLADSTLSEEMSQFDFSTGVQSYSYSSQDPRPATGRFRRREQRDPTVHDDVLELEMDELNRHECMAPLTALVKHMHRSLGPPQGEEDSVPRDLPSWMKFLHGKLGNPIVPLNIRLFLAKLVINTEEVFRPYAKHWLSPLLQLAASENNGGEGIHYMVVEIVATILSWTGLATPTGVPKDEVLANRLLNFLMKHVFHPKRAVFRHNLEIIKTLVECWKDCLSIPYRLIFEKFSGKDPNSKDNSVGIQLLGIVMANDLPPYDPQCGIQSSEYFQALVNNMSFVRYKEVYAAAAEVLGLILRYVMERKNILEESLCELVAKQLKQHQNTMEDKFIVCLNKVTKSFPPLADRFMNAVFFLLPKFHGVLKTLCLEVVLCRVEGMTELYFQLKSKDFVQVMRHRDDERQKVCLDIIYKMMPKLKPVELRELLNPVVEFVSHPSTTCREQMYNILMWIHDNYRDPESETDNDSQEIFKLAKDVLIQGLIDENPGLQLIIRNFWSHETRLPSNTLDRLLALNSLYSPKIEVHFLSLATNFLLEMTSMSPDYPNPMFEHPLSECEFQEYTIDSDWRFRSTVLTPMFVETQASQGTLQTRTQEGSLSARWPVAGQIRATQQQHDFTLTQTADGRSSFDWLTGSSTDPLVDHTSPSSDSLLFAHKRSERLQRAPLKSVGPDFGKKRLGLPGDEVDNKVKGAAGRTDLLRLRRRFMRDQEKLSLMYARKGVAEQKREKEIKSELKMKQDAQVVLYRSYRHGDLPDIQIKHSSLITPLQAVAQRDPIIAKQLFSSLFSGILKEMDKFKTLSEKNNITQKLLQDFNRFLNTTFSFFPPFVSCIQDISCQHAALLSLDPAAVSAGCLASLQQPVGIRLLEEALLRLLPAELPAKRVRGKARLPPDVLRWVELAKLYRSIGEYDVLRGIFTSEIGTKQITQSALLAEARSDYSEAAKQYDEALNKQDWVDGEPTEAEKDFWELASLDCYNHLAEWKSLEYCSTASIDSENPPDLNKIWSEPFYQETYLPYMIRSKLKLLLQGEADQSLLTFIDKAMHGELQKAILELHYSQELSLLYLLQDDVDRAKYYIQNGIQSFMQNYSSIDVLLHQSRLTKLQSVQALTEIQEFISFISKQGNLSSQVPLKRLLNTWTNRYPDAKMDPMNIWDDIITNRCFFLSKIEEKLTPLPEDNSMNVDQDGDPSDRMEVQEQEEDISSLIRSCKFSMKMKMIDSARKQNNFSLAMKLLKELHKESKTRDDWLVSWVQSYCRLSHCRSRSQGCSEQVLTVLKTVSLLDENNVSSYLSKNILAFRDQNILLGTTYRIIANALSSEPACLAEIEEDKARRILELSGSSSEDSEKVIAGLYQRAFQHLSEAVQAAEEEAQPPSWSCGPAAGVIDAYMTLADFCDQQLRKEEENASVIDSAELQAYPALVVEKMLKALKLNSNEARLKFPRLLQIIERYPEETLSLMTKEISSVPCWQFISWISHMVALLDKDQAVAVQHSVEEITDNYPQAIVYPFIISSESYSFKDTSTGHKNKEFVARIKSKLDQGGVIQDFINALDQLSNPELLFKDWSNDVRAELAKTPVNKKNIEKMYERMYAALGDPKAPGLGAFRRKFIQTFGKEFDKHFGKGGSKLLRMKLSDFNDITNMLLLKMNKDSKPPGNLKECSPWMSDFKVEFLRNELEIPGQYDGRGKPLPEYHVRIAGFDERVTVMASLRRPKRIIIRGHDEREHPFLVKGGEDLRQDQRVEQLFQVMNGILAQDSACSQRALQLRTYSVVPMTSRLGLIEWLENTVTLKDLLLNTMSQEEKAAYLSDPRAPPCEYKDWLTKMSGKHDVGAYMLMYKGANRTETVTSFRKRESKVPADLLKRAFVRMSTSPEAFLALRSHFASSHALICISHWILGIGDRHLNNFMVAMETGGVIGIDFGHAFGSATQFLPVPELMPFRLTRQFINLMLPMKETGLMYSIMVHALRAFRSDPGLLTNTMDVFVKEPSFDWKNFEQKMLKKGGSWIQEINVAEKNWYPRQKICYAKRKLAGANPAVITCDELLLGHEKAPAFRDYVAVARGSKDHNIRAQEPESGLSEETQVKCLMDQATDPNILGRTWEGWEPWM

[3] = Inhibition of Phoshoinositol 3 kinase from MCF-7 breast cancer cells; assay type: cell-based, Homo sapiens; details: mcf7
[4] = biological target: T1, DNA-dependent protein kinase catalytic subunit; assay: Inhibition of DNA dependent protein kinase with hsp90 alpha protein
[5] = Inhibition of Phoshoinositol 3 kinase; parameters: species or system Homo sapiens

Compound `CO[C@H]1/C=C\C=C(/C)C(=O)NC2=CC(=O)C(NCC#Cc3cccc4c(=O)cc(N5CCOCC5)oc34)=C(C[C@@H](C)C[C@H](OC)[C@H](O)[C@@H](C)/C=C(\C)[C@@H]1OC(N)=O)C2=O` has an EC50 [1] of 7 µM, an IC50 [2] of 3 µM and an IC50 [3] of 3 µM.
`CO[C@H]1/C=C\C=C(/C)C(=O)NC2=CC(=O)C(NCCCCCOc3ccc4c(=O)cc(N5CCOCC5)oc4c3)=C(C[C@@H](C)C[C@H](OC)[C@H](O)[C@@H](C)/C=C(\C)[C@@H]1OC(N)=O)C2=O` showed an EC50 [1] of 2.5 µM, an IC50 [2] of 10 µM and an IC50 [4] of 5 µM. For the same compound, the IC50 [3] was 310 µM.
`CO[C@H]1/C=C\C=C(/C)C(=O)NC2=CC(=O)C(NCCOCCOc3ccc4c(=O)cc(N5CCOCC5)oc4c3C)=C(C[C@@H](C)C[C@H](OC)[C@H](O)[C@@H](C)/C=C(\C)[C@@H]1OC(N)=O)C2=O` gave an EC50 [1] of over 50 µM, an IC50 [2] of 12.2 µM and an IC50 [3] of 70 µM.
In the case of `CO[C@H]1/C=C\C=C(/C)C(=O)NC2=CC(=O)C(NCCCCCCCOc3ccc4c(=O)cc(N5CCOCC5)oc4c3C)=C(C[C@@H](C)C[C@H](OC)[C@H](O)[C@@H](C)/C=C(\C)[C@@H]1OC(N)=O)C2=O`, the EC50 [1] is reported as 46 µM, the IC50 [2] is reported as 3.7 µM and the IC50 [3] is reported as 5 µM.
With `CO[C@H]1/C=C\C=C(/C)C(=O)NC2=CC(=O)C(NCCCCCCCCOc3ccc4c(=O)cc(N5CCOCC5)oc4c3C)=C(C[C@@H](C)C[C@H](OC)[C@H](O)[C@@H](C)/C=C(\C)[C@@H]1OC(N)=O)C2=O` the EC50 [1] was 28 µM, the IC50 [2] was 1.75 µM and the IC50 [3] was 28 µM.
For `O=c1cc(N2CCOCC2)oc2c1ccc1ccccc12`, the IC50 [5] was 6 µM.
Work on `CO[C@H]1/C=C\C=C(/C)C(=O)NC2=CC(=O)C(NCCCC#Cc3cccc4c(=O)cc(N5CCOCC5)oc34)=C(C[C@@H](C)C[C@H](OC)[C@H](O)[C@@H](C)/C=C(\C)[C@@H]1OC(N)=O)C2=O` yielded an EC50 [1] of over 50 µM, an IC50 [2] of 13.4 µM and an IC50 [3] of 13.5 µM.
Compound `O=c1cc(N2CCOCC2)oc2ccccc12` has an EC50 [1] of over 50 µM, an IC50 [2] of 4.3 µM and an IC50 [3] of 14 µM.
Compound `C=CCNC1=C2C[C@@H](C)C[C@H](OC)[C@H](O)[C@@H](C)/C=C(\C)[C@H](OC(N)=O)[C@@H](OC)/C=C\C=C(/C)C(=O)NC(=CC1=O)C2=O` [TANESPIMYCIN] has an IC50 [2] of over 40 µM and an IC50 [3] of over 500 µM.
Compound `CO[C@H]1/C=C\C=C(/C)C(=O)NC2=CC(=O)C(NCCCOc3ccc4c(=O)cc(N5CCOCC5)oc4c3)=C(C[C@@H](C)C[C@H](OC)[C@H](O)[C@@H](C)/C=C(\C)[C@@H]1OC(N)=O)C2=O` has an EC50 [1] of 26 µM, an IC50 [2] of 28 µM and an IC50 [3] of over 500 µM.
`CO[C@H]1/C=C\C=C(/C)C(=O)NC2=CC(=O)C(NCCCCOc3ccc4c(=O)cc(N5CCOCC5)oc4c3)=C(C[C@@H](C)C[C@H](OC)[C@H](O)[C@@H](C)/C=C(\C)[C@@H]1OC(N)=O)C2=O` showed an EC50 [1] of 10 µM, an IC50 [2] of 13.9 µM and an IC50 [3] of 200 µM.
Compound `CO[C@H]1/C=C\C=C(/C)C(=O)NC2=CC(=O)C(NCCOCCOc3ccc4c(=O)cc(N5CCOCC5)oc4c3)=C(C[C@@H](C)C[C@H](OC)[C@H](O)[C@@H](C)/C=C(\C)[C@@H]1OC(N)=O)C2=O` has an EC50 [1] of 16 µM, an IC50 [2] of 33 µM and an IC50 [3] of 85 µM.
`CO[C@H]1/C=C\C=C(/C)C(=O)NC2=CC(=O)C(NCCCCCCOc3ccc4c(=O)cc(N5CCOCC5)oc4c3)=C(C[C@@H](C)C[C@H](OC)[C@H](O)[C@@H](C)/C=C(\C)[C@@H]1OC(N)=O)C2=O` gave an EC50 [1] of 4 µM, an IC50 [2] of 6.1 µM and an IC50 [3] of over 500 µM.
